PubChem BioAssay (NCI)
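Method: 48-hour compound exposure of cells in 96-well plates, five concentrations, linear interpolation of endpoints. At the GI50, growth is halved. Definition used: TGI = concentration required for complete inhibition of growth.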

Assays:
Assay in all cases: NCI anticancer screen, dose series, 48 h
786-0 renal = test system: 786-0 renal
HCC-2998 colon = test system: HCC-2998 colon
ACHN renal = test system: ACHN renal
SK-MEL-2 melanoma = test system: SK-MEL-2 melanoma
RPMI-8226 leukemia = test system: RPMI-8226 leukemia
TK-10 renal = test system: TK-10 renal
HOP-92 NSCLC = test system: HOP-92 NSCLC
NCI-H522 lung = test system: NCI-H522 lung
MOLT-4 leukemia = test system: MOLT-4 leukemia
COLO 205 colon = test system: COLO 205 colon
HL-60(TB) leukemia = test system: HL-60(TB) leukemia
UACC-62 melanoma = test system: UACC-62 melanoma
DU-145 prostate = test system: DU-145 prostate
UO-31 renal = test system: UO-31 renal
SK-MEL-28 melanoma = test system: SK-MEL-28 melanoma
SN12C renal = test system: SN12C renal
MALME-3M melanoma = test system: MALME-3M melanoma
HCT-116 colon = test system: HCT-116 colon
HS 578T breast = test system: HS 578T breast
BT-549 breast = test system: BT-549 breast
T-47D breast = test system: T-47D breast
OVCAR-8 ovarian = test system: OVCAR-8 ovarian
NCI/ADR-RES ovarian = test system: NCI/ADR-RES ovarian
IGROV1 ovarian = test system: IGROV1 ovarian
U251 CNS = test system: U251 CNS
NCI-H226 lung = test system: NCI-H226 lung
MDA-MB-231 breast = test system: MDA-MB-231 breast
NCI-H460 lung = test system: NCI-H460 lung
MDA-MB-435 = test system: MDA-MB-435
SK-MEL-5 melanoma = test system: SK-MEL-5 melanoma
OVCAR-3 ovarian = test system: OVCAR-3 ovarian
SF-268 CNS = test system: SF-268 CNS
CAKI-1 renal = test system: CAKI-1 renal
A549 NSCLC = test system: A549 NSCLC
HT29 colon = test system: HT29 colon
OVCAR-5 ovarian = test system: OVCAR-5 ovarian
MCF7 breast = test system: MCF7 breast
OVCAR-4 ovarian = test system: OVCAR-4 ovarian
SR leukemia = test system: SR leukemia
HCT-15 colon = test system: HCT-15 colon
CCRF-CEM leukemia = test system: CCRF-CEM leukemia
NCI-H23 lung = test system: NCI-H23 lung
K-562 leukemia = test system: K-562 leukemia
EKVX NSCLC = test system: EKVX NSCLC
KM12 colon = test system: KM12 colon
A498 renal = test system: A498 renal
M14 melanoma = test system: M14 melanoma
SK-OV-3 ovarian = test system: SK-OV-3 ovarian
RXF 393 renal = test system: RXF 393 renal
SF-539 CNS = test system: SF-539 CNS
PC-3 prostate = test system: PC-3 prostate
HOP-62 NSCLC = test system: HOP-62 NSCLC
SF-295 CNS = test system: SF-295 CNS
UACC-257 melanoma = test system: UACC-257 melanoma
SNB-19 CNS = test system: SNB-19 CNS
SNB-75 CNS = test system: SNB-75 CNS
SW-620 colon = test system: SW-620 colon

Structure (SMILES): COc1ccc(/C=C(\C#N)c2nc(N)nc(N3N=C(C)CC3(C)C)n2)c(O)c1
- TGI (786-0 renal): 30000 nM
- TGI (HCC-2998 colon): 38200 nM
- TGI (ACHN renal): 31000 nM
- TGI (SK-MEL-2 melanoma): 38900 nM
- TGI (RPMI-8226 leukemia): 98700 nM
- TGI (TK-10 renal): 77700 nM
- TGI (HOP-92 NSCLC): 58500 nM
- TGI (NCI-H522 lung): 38900 nM
- TGI (MOLT-4 leukemia): 34100 nM
- TGI (COLO 205 colon): 30900 nM
- TGI (HL-60(TB) leukemia): 46800 nM
- TGI (UACC-62 melanoma): 34600 nM
- TGI (DU-145 prostate): 37700 nM
- TGI (UO-31 renal): 36000 nM
- TGI (SK-MEL-28 melanoma): 29600 nM
- TGI (SN12C renal): > 100000 nM
- TGI (MALME-3M melanoma): 31700 nM
- TGI (HCT-116 colon): 31400 nM
- TGI (HS 578T breast): 40000 nM
- TGI (BT-549 breast): > 100000 nM
- TGI (T-47D breast): 34500 nM
- TGI (OVCAR-8 ovarian): > 100000 nM
- TGI (NCI/ADR-RES ovarian): 97300 nM
- TGI (IGROV1 ovarian): 56400 nM
- TGI (U251 CNS): 94100 nM
- TGI (NCI-H226 lung): 35900 nM
- TGI (MDA-MB-231 breast): 44800 nM
- TGI (NCI-H460 lung): 38200 nM
- TGI (MDA-MB-435): 33100 nM
- TGI (SK-MEL-5 melanoma): 28500 nM
- TGI (OVCAR-3 ovarian): 28300 nM
- TGI (SF-268 CNS): 38300 nM
- TGI (CAKI-1 renal): 38100 nM
- TGI (A549 NSCLC): 44500 nM
- TGI (HT29 colon): 44500 nM
- TGI (OVCAR-5 ovarian): 34200 nM
- TGI (MCF7 breast): 45500 nM
- TGI (OVCAR-4 ovarian): 30400 nM
- TGI (SR leukemia): 35700 nM
- TGI (HCT-15 colon): 35300 nM
- TGI (CCRF-CEM leukemia): 76900 nM
- TGI (NCI-H23 lung): 42300 nM
- TGI (K-562 leukemia): 84700 nM
- TGI (EKVX NSCLC): 47900 nM
- TGI (KM12 colon): 29200 nM
- TGI (A498 renal): 69700 nM
- TGI (M14 melanoma): 35600 nM
- TGI (SK-OV-3 ovarian): 65100 nM
- TGI (RXF 393 renal): 33400 nM
- TGI (SF-539 CNS): 29100 nM
- TGI (PC-3 prostate): > 100000 nM
- TGI (HOP-62 NSCLC): 43600 nM
- TGI (SF-295 CNS): 43000 nM
- TGI (UACC-257 melanoma): 59100 nM
- TGI (SNB-19 CNS): > 100000 nM

Structure (SMILES): CCCCCCCC/C=C/CCCCCCCC1=NC(C)(C)CN1C(C)C
- GI50 (786-0 renal): 1580 nM
- TGI (786-0 renal): 2930 nM
- GI50 (HCC-2998 colon): 1420 nM
- TGI (HCC-2998 colon): 2720 nM
- GI50 (ACHN renal): 1650 nM
- TGI (ACHN renal): 3010 nM
- GI50 (TK-10 renal): 1450 nM
- TGI (TK-10 renal): 2790 nM
- GI50 (HOP-92 NSCLC): 819 nM
- TGI (HOP-92 NSCLC): 2600 nM
- GI50 (SNB-75 CNS): 1560 nM
- TGI (SNB-75 CNS): 2900 nM
- GI50 (COLO 205 colon): 516 nM
- TGI (COLO 205 colon): 2090 nM
- GI50 (HL-60(TB) leukemia): 1620 nM
- TGI (HL-60(TB) leukemia): 3250 nM
- GI50 (UACC-62 melanoma): 1610 nM
- TGI (UACC-62 melanoma): 3020 nM
- GI50 (DU-145 prostate): 1630 nM
- TGI (DU-145 prostate): 2990 nM
- GI50 (UO-31 renal): 1430 nM
- TGI (UO-31 renal): 2810 nM
- GI50 (SK-MEL-28 melanoma): 1530 nM
- TGI (SK-MEL-28 melanoma): 2860 nM
- GI50 (SN12C renal): 1460 nM
- TGI (SN12C renal): 2780 nM
- GI50 (MALME-3M melanoma): 1630 nM
- TGI (MALME-3M melanoma): 3270 nM
- GI50 (HCT-116 colon): 1400 nM
- TGI (HCT-116 colon): 2700 nM
- GI50 (HS 578T breast): 1550 nM
- TGI (HS 578T breast): 3560 nM
- GI50 (BT-549 breast): 1580 nM
- TGI (BT-549 breast): 3740 nM
- GI50 (T-47D breast): 1620 nM
- TGI (T-47D breast): 3270 nM
- GI50 (NCI/ADR-RES ovarian): 1540 nM
- TGI (NCI/ADR-RES ovarian): 3160 nM
- GI50 (IGROV1 ovarian): 868 nM
- TGI (IGROV1 ovarian): 2140 nM
- GI50 (U251 CNS): 1620 nM
- TGI (U251 CNS): 3000 nM
- GI50 (NCI-H226 lung): 1750 nM
- TGI (NCI-H226 lung): 4520 nM
- GI50 (MDA-MB-231 breast): 1590 nM
- TGI (MDA-MB-231 breast): 2970 nM
- GI50 (NCI-H460 lung): 1700 nM
- TGI (NCI-H460 lung): 3070 nM
- GI50 (MDA-MB-435): 1600 nM
- TGI (MDA-MB-435): 3010 nM
- GI50 (SK-MEL-5 melanoma): 1610 nM
- TGI (SK-MEL-5 melanoma): 2960 nM
- GI50 (OVCAR-3 ovarian): 1270 nM
- TGI (OVCAR-3 ovarian): 2530 nM
- GI50 (SF-268 CNS): 1700 nM
- TGI (SF-268 CNS): 3070 nM
- GI50 (SW-620 colon): 1590 nM
- TGI (SW-620 colon): 2940 nM
- GI50 (CAKI-1 renal): 1160 nM
- TGI (CAKI-1 renal): 2380 nM
- GI50 (HT29 colon): 576 nM
- TGI (HT29 colon): 1860 nM
- GI50 (OVCAR-5 ovarian): 1540 nM
- TGI (OVCAR-5 ovarian): 2880 nM
- GI50 (MCF7 breast): 1520 nM
- TGI (MCF7 breast): 2950 nM
- GI50 (OVCAR-4 ovarian): 1630 nM
- TGI (OVCAR-4 ovarian): 2980 nM
- GI50 (SR leukemia): 1020 nM
- TGI (SR leukemia): 2420 nM
- GI50 (HCT-15 colon): 1510 nM
- TGI (HCT-15 colon): 2900 nM
- GI50 (NCI-H23 lung): 1510 nM
- TGI (NCI-H23 lung): 2830 nM
- GI50 (K-562 leukemia): 1110 nM
- TGI (K-562 leukemia): 2390 nM
- GI50 (EKVX NSCLC): 1560 nM
- TGI (EKVX NSCLC): 3270 nM
- GI50 (KM12 colon): 1620 nM
- TGI (KM12 colon): 2970 nM
- GI50 (A498 renal): 2040 nM
- TGI (A498 renal): 5210 nM
- GI50 (M14 melanoma): 1530 nM
- TGI (M14 melanoma): 2860 nM
- GI50 (SK-OV-3 ovarian): 1320 nM
- TGI (SK-OV-3 ovarian): 2590 nM
- GI50 (RXF 393 renal): 1580 nM
- TGI (RXF 393 renal): 3040 nM
- GI50 (SF-539 CNS): 1530 nM
- TGI (SF-539 CNS): 2870 nM
- GI50 (PC-3 prostate): 1310 nM
- TGI (PC-3 prostate): 2830 nM
- GI50 (HOP-62 NSCLC): 1580 nM
- TGI (HOP-62 NSCLC): 2920 nM
- GI50 (SF-295 CNS): 1640 nM
- TGI (SF-295 CNS): 3070 nM
- GI50 (UACC-257 melanoma): 1860 nM
- TGI (UACC-257 melanoma): 3400 nM
- GI50 (SNB-19 CNS): 2170 nM
- TGI (SNB-19 CNS): 7490 nM
